Measured values: patent US11000038B2, “Pyridone compounds and agricultural and horticultural fungicides containing the same as active ingredients” (priority 2017, dated 2021)

How the values were obtained:
[1] = tested on: grape downy mildew fungus (Plasmopara viticola); assay: Test Example G: grape downy mildew, spray treatment of grape plants; details: read-out: Test G control value class (grape downy mildew)
Experimental: Test plants (grape variety: Neomuscat) were cultivated until three to four first leaves appeared after the sowing of seeds. In the test, the chemical solution was obtained by dissolving the compound of the present invention in a dimethylsulfoxide-methanol mixed solvent (volume ratio: 9/1) and appropriately diluting the resultant solution with well water so that the concentration was 250 ppm. The obtained chemical solution was sprayed to the test plants (2.5 ml/pot). The plants after the drying of the chemical liquid were inoculated with grape downy mildew fungus (Plasmopara viticola) by spraying a zoosporangial suspension of 1 to 2×10^4 zoosporangia/ml. After the inoculation, the plants were allowed to stand, for about 24 hours, in a moist chamber with the room temperature of 20° C. to promote the onset of disease. The degree of disease development after 7 to 10 days from the inoculation was investigated to evaluate the effect of the chemical solution.
(§1) With respect to each Test Example described above, the degree of disease development was evaluated as a value with increments of 0.05, regarding the degree of disease development for plants with no onset of disease as 0 and that for plants of untreated group as 3. Further, from the degrees of disease development, a control value was calculated according to the calculation formula below.
(§2) n=Degree of disease development of each chemical treated group

[2] = tested on: cucumber anthracnose fungi (Colletotrichum orbiculare); assay: Test Example H: cucumber anthracnose, spray treatment of cucumber plants; details: in Cucumis sativus, read-out: Test H control value class (cucumber anthracnose)
Experimental: [Test Example H] Cucumber Anthracnose
Test plants (cucumber variety: Sagami Hanjiro) were cultivated until one first leaf appeared after the sowing of seeds. In the test, the chemical solution was obtained by dissolving the compound of the present invention in a dimethylsulfoxide-methanol mixed solvent (volume ratio: 9/1) and appropriately diluting the resultant solution with well water so that the concentration was 250 ppm. The obtained chemical solution was sprayed to the test plants (2.5 ml/pot). The plants after the drying of the chemical liquid were inoculated with cucumber anthracnose fungi (Colletotrichum orbiculare) by spraying a conidial suspension of 2 to 4×10^5 conidia/ml. After the inoculation, the plants were allowed to stand, for about 24 hours, in a moist chamber with the room temperature of 20 to 23° C. to promote the onset of disease. The degree of disease development after 6 to 10 days from the inoculation was investigated to evaluate the effect of the chemical solution.
as §1, §2

[3] = tested on: tomato late blight fungi (Phytophthora infestans); assay: whole plant or invertebrate; assay type: in vivo; details: read-out: Test F control value class (tomato late blight)
[4] = tested on: wheat brown rust fungi (Puccinia recondita); assay: Test Example E: wheat brown rust, spray treatment of wheat plants; assay type: in vivo; details: control value=100{1-(n/3)}, read-out: Test E control value class (wheat brown rust)
[5] = tested on: gray mold fungi (Botrytis cinerea); assay: Test Example B: tomato gray mold, spray treatment of tomato plants; details: in Solanum lycopersicum, read-out: Test B control value class (tomato gray mold)
From the text: [Test Example B] Tomato Gray Mold
Test plants (tomato variety: Oogata Fukuju) were cultivated until three to five first leaves (true leaves) appeared after the sowing of seeds. In the test, the chemical solution was obtained by dissolving the compound of the present invention in a dimethylsulfoxide-methanol mixed solvent (volume ratio: 9/1) and appropriately diluting the resultant solution with well water so that the concentration was 250 ppm. The obtained chemical solution was sprayed to the test plants (2.5 ml/pot). The plants after the drying of the chemical liquid were inoculated with gray mold fungi (Botrytis cinerea) by spraying a conidial suspension of 4 to 8×10^5 conidia/ml. After the inoculation, the plants were allowed to stand, for about 48 hours, in a moist chamber with the room temperature of 20 to 23° C. to promote the onset of disease. The degree of disease development after 2 to 3 days from the inoculation was investigated to evaluate the effect of the chemical solution.
as §1, §2

[6] = tested on: cabbage Alternaria sooty spot fungi (Alternaia brassicicola); assay: Test Example C: cabbage Alternaria sooty spot, spray treatment of cabbage plants; assay type: in vivo; details: control value=100{1-(n/3)}, read-out: Test C control value class (cabbage Alternaria sooty spot)
From the text: [Test Example C] Cabbage Alternaria Sooty Spot
Test plants (cabbage variety: Shikidori) were cultivated until the cotyledons extended after the sowing of seeds.
<Control Value> Control value=100{1−(n/3)}

[7] = tested on: rice blast fungi (Magnaporthe grisea); assay: whole plant or invertebrate; assay type: in vivo; details: Pyricularia oryzae, read-out: Test A control value class (rice blast)

Structure (SMILES)	pest or weed control at 250 ppm [1] [%]	pest or weed control at 250 ppm [2] [%]	pest or weed control at 250 µg/mL [3] [%]	pest or weed control at 250 µg/mL [4] [%]	pest or weed control at 250 µg/mL [5] [%]	pest or weed control at 250 µg/mL [6] [%]	pest or weed control at 250 µg/mL [7] [%]
O=c1c(Br)cn(-c2ccccc2Cl)c(-c2c(F)cc(F)cc2F)c1Br [Compound 1, 3,5-dibromo-1-(2-chlorophenyl)-2-(2,4,6-trifluorophenyl)pyridin-4(1H)-one]	> 50	> 50	< 50	> 50	> 50	> 50	> 50
O=c1c(Br)cn(-c2ccccc2Cl)c(-c2c(F)cc(F)cc2F)c1Cl [Compound 2, 5-bromo-3-chloro-1-(2-chlorophenyl)-2-(2,4,6-trifluorophenyl)pyridin-4(1H)-one]	> 50	> 50	< 50	> 50	> 50	> 50	> 50
O=c1c(Cl)cn(-c2ccccc2Cl)c(-c2c(F)cc(F)cc2F)c1Cl [Compound 4, 3,5-dichloro-1-(2-chlorophenyl)-2-(2,4,6-trifluorophenyl)pyridin-4(1H)-one]	> 50	> 50	< 50	> 50	> 50	> 50	> 50
COc1cc(F)c(-c2c(Cl)c(=O)c(Cl)cn2-c2ccccc2Cl)c(F)c1 [Compound 5, 3,5-dichloro-1-(2-chlorophenyl)-2-(2,6-difluoro-4-methoxyphenyl)pyridin-4(1H)-one]	> 50	> 50	< 50	> 50	> 50	> 50	> 50
O=c1c(Br)cn(-c2cccnc2Cl)c(-c2c(F)cc(F)cc2F)c1Br [Compound 38, 3,5-dibromo-2′-chloro-2-(2,4,6-trifluorophenyl)-4H-[1,3′-bipyridin]-4-one]	> 50	> 50	> 50	> 50	> 50	> 50	> 50
O=c1c(Cl)cn(Cc2ccccc2)c(-c2c(F)cc(F)cc2F)c1Br [Compound 49, 1-benzyl-3-bromo-5-chloro-2-(2,4,6-trifluorophenyl)pyridin-4(1H)-one]	> 50	> 50	> 50	> 50	> 50	> 50	> 50
Cc1cc(-n2cc(Cl)c(=O)c(Br)c2-c2c(F)cc(F)cc2F)no1 [Compound 141, 3-bromo-5-chloro-1-(5-methylisoxazol-3-yl)-2-(2,4,6-trifluorophenyl)pyridin-4(1H)-one]	< 50	< 50	< 50	> 50	> 50	> 50	< 50
Cc1onc(-n2cc(Cl)c(=O)c(Br)c2-c2c(F)cc(F)cc2F)c1Br [Compound 142, 3-bromo-1-(4-bromo-5-methylisoxazol-3-yl)-5-chloro-2-(2,4,6-trifluorophenyl)pyridin-4(1H)-one]	> 50	> 50	> 50	> 50	> 50	> 50	> 50
CCC(C)Cn1cc(Cl)c(=O)c(Cl)c1-c1c(F)cc(F)cc1F (centres unmarked) [Compound 162, 3,5-dichloro-1-(2-methylbutyl)-2-(2,4,6-trifluorophenyl)pyridin-4(1H)-one]	> 50	> 50	< 50	> 50	> 50	> 50	> 50
Cc1ccccc1-n1cc(C)c(=O)c(C)c1-c1c(F)cc(F)cc1F [Compound 174, 3,5-dimethyl-1-(o-toluyl)-2-(2,4,6-trifluorophenyl)pyridin-4(1H)-one]	> 50	> 50	< 50	> 50	> 50	> 50	> 50
COc1cc(F)c(-c2c(C)c(=O)c(C)cn2-c2ccccc2C)c(F)c1 [Compound 175, 2-(2,6-difluoro-4-methoxyphenyl)-3,5-dimethyl-1-(o-toluyl)pyridin-4(1H)-one]	> 50	> 50	< 50	> 50	> 50	> 50	> 50
